Test results as given in US6358694B1, “Methods of identifying modulators of a prostaglandin receptor” (Merck Frosst Canada & Co., priority 1993, dated 2002).
pIC50: −log10 of the molar value.

Assays:
FP receptor [1] = target: T1, FP receptor (Homo sapiens, UniProt P43088); assay: electrophysiological assay (Ca2+-dependent Cl- current) in pcDNAIamp-FP-injected Xenopus oocytes; format: cell-based; conditions: perfusion of 10 nM, oocyte voltage clamped at -60 mV
T1 construct: A long open reading frame (1077 bp) was determined which would result in a 359 amino acid polypeptide; expressed in transfected cells; host or cells: Xenopus laevis oocytes (stage 5-6), nuclear injection of 1-5 ng pcDNAIamp-FP plasmid
T1 sequence (P43088 whole entry, the tested form may be a part): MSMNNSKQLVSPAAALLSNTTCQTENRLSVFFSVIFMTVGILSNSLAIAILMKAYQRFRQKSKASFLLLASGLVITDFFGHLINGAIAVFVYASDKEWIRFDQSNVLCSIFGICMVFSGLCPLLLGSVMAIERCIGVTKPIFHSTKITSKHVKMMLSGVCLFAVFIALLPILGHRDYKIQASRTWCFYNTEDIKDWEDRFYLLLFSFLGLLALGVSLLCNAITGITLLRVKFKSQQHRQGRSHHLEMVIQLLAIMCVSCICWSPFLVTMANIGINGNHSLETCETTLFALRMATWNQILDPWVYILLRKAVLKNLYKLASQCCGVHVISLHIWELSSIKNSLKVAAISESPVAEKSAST
Description: (§1) Ooctyes were taken from adult females of Xenopus laevis using standard surgical procedure (Colman, A., 1984 In: Transcription and Translation—A Practical Approach, IRL Press). To remove follicle cells, oocytes were treated for 2-3 h with freshly made collagenase (2 mg/ml, type 2, Worthington Biochemical Corp., Freehold, N.J.) in Ca^2+-free ND96 solution (ND96 in mM: NaCl 96, KCl 2, MgCl2 1, HEPES 5, Na-pyruvate 2.5, theophylline 0.5, gentamicin […], +1.8 CaCl2, pH 7.6). Defolliculated stage 5-6 oocytes were selected and maintained in ND96 solution. Ooctye nuclei were injected with 1-5 ng of pcDNAIamp-PP and then incubated at 18° C. for 48 h before challenge with agonist. Functional activity was determined by measurement of either agonist-induced Ca^2+-dependent Cl^− current or light emission in oocytes injected with the Ca^2+-specific photoprotein aequorin (J. Blinks, Friday Harbor Photoproteins, Wash.), (Giladi and Spindel 1991 Biotechniques, 10, pp 744-747). […] Ligand-containing solution was perfused and the current response was recorded. For the luminometric assay, aequorin-loaded oocytes (100 ng/oocyte) were placed individually in cuvettes containing 0.4 ml ND96 and the light emission provoked by ligand addition was recorded using a Bio-Orbit 1251 luminometer (Fisher Sci. Ltd.).

cloned human FP receptor = target: T2, cloned human FP receptor (Homo sapiens, UniProt P43088); assay: [3H]PGF2α competition binding assay with membranes of pcDNAIamp-hFP transfected COS-M6 cells; conditions: for rank order of potency for competition of [3H]PGF2α specific binding: transfected COS-M6 membranes, 0.03 nM-10 μM competitor
T2 construct: A long open reading frame (1077 bp) was determined which would result in a 359 amino acid polypeptide; expressed in transfected cells; host or cells: COS-M6 cells, transient DEAE-dextran transfection with pcDNAIamp-hFP; 100,000 x g membrane fraction
T2 sequence (P43088 whole entry): as the sequence (P43088 whole entry, the tested form may be a part) above
Description: The recently cloned human prostaglandin F2a (FP) receptor was subcloned into the pcDNA lamp plasmid (Invitrogen) and transfected into COS-M6 cells using the DEAE-dextran method. The cells were maintained in culture for 72 h, then harvested and membranes prepared by differential centrifugation (1000×g for 10 min, then 100,000×g for 30 min) following lysis of the cells by nitrogen cavitation. […] Incubations were conducted for 1 h at room temperature prior to separation of the bound and free radioligand by rapid filtration through Whatman GF/B filters presoaked at 4° C. in washing buffer ([…] (pH 6.0) containing 0.01% bovine serum albumin).

FP receptor [2] = target: T1, FP receptor; assay: aequorin luminescence assay in pcDNAIamp-FP-injected Xenopus oocytes; format: cell-based; conditions: aequorin-loaded oocytes, compared to PGE2
Description: as §1

With `O=C(O)CCC/C=C\C[C@@H]1[C@@H](/C=C/[C@@H](O)COc2cccc(C(F)(F)F)c2)[C@H](O)C[C@@H]1O` (racemic) [fluprostenol] as the molecule, how does the “agonist-induced Ca2+-dependent Cl- current response” value (FP receptor [1]) read?
Its value is “prominent current responses”.

And the pIC50 (cloned human FP receptor)?
Its pIC50 is 8.46.

What about the “rank order of potency for competition of [3H]PGF2α specific binding” value (“rank order of potency” for short) (cloned human FP receptor) of the same molecule?
Its value is “PGF2α=fluprostenol>PGD2>>PGE2≈U46619>iloprost”.

What about the “agonist potency from dose-response of aequorin light emission” value (FP receptor [2]) of the same molecule?
Its value is “more potent agonists”.

With `CCCCC[C@H](O)/C=C/[C@H]1C(=O)C[C@H](O)[C@@H]1C/C=C\CCCC(=O)O` [PGD2] as the molecule, how does the “rank order of potency” value (cloned human FP receptor) read?
The value was “PGF2α=fluprostenol>PGD2>>PGE2≈U46619>iloprost”.

Which “rank order of potency” value (cloned human FP receptor) does the source give for `CCCCC[C@H](O)/C=C/[C@H]1[C@H](O)CC(=O)[C@@H]1C/C=C\CCCC(=O)O` [PGE2] here?
The value was “PGF2α=fluprostenol>PGD2>>PGE2≈U46619>iloprost”.

`CCCCC[C@H](O)/C=C/[C@@H]1[C@@H](C/C=C\CCCC(=O)O)[C@H]2CO[C@@H]1C2` [U46619] was tested. Which “rank order of potency” value (cloned human FP receptor) did it give?
The value was “PGF2α=fluprostenol>PGD2>>PGE2≈U46619>iloprost”.

With `CC#CCC(C)[C@H](O)/C=C/[C@@H]1[C@H]2C/C(=C/CCCC(=O)O)C[C@H]2C[C@H]1O` (some centres unmarked) [iloprost] as the molecule, how does the “rank order of potency” value (cloned human FP receptor) read?
Its value is “PGF2α=fluprostenol>PGD2>>PGE2≈U46619>iloprost”.
